# Assay results taken from patent US20090018151A1, “Topical Treatment of Peripheral diabetic complications” (priority 2007, published 2009).
# Test system: diabetic neuropathy
# Experiment: action of minoxidil on diabetic neuropathy (one foot minoxidil, other foot placebo, blinded)
# Assay type: in vivo, human
# Source text: Example: action of minoxidil on diabetic neuropathy. A subject with a history of type II diabetes and painful symmetric diabetic neuropathy with stable blood sugars for at least 4 weeks prior to beginning therapy had minoxidil applied to one foot and placebo applied to the other foot in a blinded fashion. […] They had not taken any other pain medication 3 months prior to initiating treatment and during treatment. They also had significant skin dryness. Within 2 weeks the subject reported a VAS score improvement of 3 on the foot with the minoxidil treatment.
structure (smiles),measurement,setting,value
"Nc1cc(N2CCCCC2)nc(N)[n+]1[O-] [minoxidil, 6-(1-piperidinyl)pyrimidine-2,4-diamine 3-oxide]",Re-growth of hair,"foot treated with minoxidil vs placebo foot, subject had hair loss on the feet up to mid-calf",Re-growth of hair was found on the side treated with minoxidil only
same,Improvement of the dryness of the skin,"foot treated with minoxidil vs placebo foot, subject had significant skin dryness",Improvement of the dryness of the skin was also noted on the side treated with minoxidil only
same,VAS score improvement,"person, type II diabetes, painful symmetric diabetic neuropathy, minoxidil applied to one foot, within 2 weeks",3
